Measured values taken from patent publication US8192962B2, “Processes for detecting toxic substances” (Daikin Industries, Ltd., priority 2001, dated 2012).

Tested on: Mitochondria-located protein genes
Assay: DNA chip mRNA expression in yeast, mitochondria-located protein genes (Table 2)
Assay type: cell-based, Saccharomyces cerevisiae S288C
Settings: cells incubated two hours with the chemical substance
Experimental: Yeast (Saccharomyces cerevisiae S288C (α SUC2mal mel gap2 CUP1)) were incubated at 25° C. on YPD medium (yeast extract 1%, polypepton 2%, glucose 2%). One of toxic chemical substances was added to the cells at logarithmic growth phase, and the cells were further incubated for two hours. Cells were cultured without any chemical substance in the same condition, and were used as control. Concentrations of the chemical substances were defined to inhibit the growth of the yeast but not lead to death.
After completion of the incubation, the culture was centrifuged to collect the cells. To the cells, sodium acetate buffer (50 mM sodium acetate, 10 mM EDTA, 1% SDS) was added, and the mixture was shaken at 65° C. for five minutes, followed by returning to room temperature, and obtaining the supernatant, of which the procedures were repeated two times. To the supernatant, ½ amount of a solution of phenol/chloroform was added, and the mixture was centrifuged to give a supernatant, which was added with an equal amount of chloroform, and the mixture was centrifuged to give a supernatant. To the supernatant, an equal amount of isopropanol containing 0.3 M sodium acetate was added, and the mixture was allowed to stand at room temperature for 30 minutes, after which the mixture was centrifuged to give a sediment of the whole RNAs. Seventy % ethanol was added to the sediment, and the mixture was again centrifuged to give a sediment, which was then dried and dissolved in water. mRNA was isolated from the whole RNAs as followings. In view of the fact that a poly A chain is attached to the 3′ terminus of mRNA, a polynucleotide having a poly T structure which was immobilized on the surface of latex beads was used to trap the mRNA, and then the mRNA was washed and eluted with spine column (Oligotex-dT30<Super>mRNA Purification Kit, Takara). Reverse transcription of the mRNA was conducted with a reverse transcriptase (Super Script II Reverse Transcriptase; catalogue No. 18064-014, GibcoBRL) using fluorescence-labeled nucleotides to give cDNAs that were introduced with Cy3-dUTP or Cy5-dUTP during the reverse transcription.
The labeled cDNAs were dissolved in TE buffer (10mM Tris-HCl/1 mM EDTA, pH8.0), and the solution was dropped on the DNA chip containing the whole genes of yeast (DNA Chip Research Inc. Japan) so that the cDNAs were hybridized on the DNA chip at 65° C. for over 12 hours. The fluoresces intensity of the DNA chip was read with a scanner, and the ratio relative to the fluorescence intensity resulting from the absence of chemical substance was estimated as the following, which is shown in Tables 1 to 9: […]

Compound: Cl[C@H]1[C@H](Cl)[C@@H](Cl)[C@@H](Cl)[C@H](Cl)[C@H]1Cl [(7), γ-hexachlorocyclohexane]
- The level of expressed mRNA in the presence of chemical substance/The level of expressed mRNA in the absence of chemical substance (yeast gene YJR121W): 1.0
- The level of expressed mRNA in the presence of chemical substance/The level of expressed mRNA in the absence of chemical substance (yeast gene YKL003C): 1.4
- The level of expressed mRNA in the presence of chemical substance/The level of expressed mRNA in the absence of chemical substance (yeast gene YKL016C): 1.5
- The level of expressed mRNA in the presence of chemical substance/The level of expressed mRNA in the absence of chemical substance (yeast gene YKL141W): 0.5
- The level of expressed mRNA in the presence of chemical substance/The level of expressed mRNA in the absence of chemical substance (yeast gene YKL142W): 6.9
- The level of expressed mRNA in the presence of chemical substance/The level of expressed mRNA in the absence of chemical substance (yeast gene YKL148C): 0.6
- The level of expressed mRNA in the presence of chemical substance/The level of expressed mRNA in the absence of chemical substance (yeast gene YKL170W): 1.5
- The level of expressed mRNA in the presence of chemical substance/The level of expressed mRNA in the absence of chemical substance (yeast gene YKL194C): 2.1
- The level of expressed mRNA in the presence of chemical substance/The level of expressed mRNA in the absence of chemical substance (yeast gene YKR066C): 0.5
- The level of expressed mRNA in the presence of chemical substance/The level of expressed mRNA in the absence of chemical substance (yeast gene YLL041C): 0.3
- The level of expressed mRNA in the presence of chemical substance/The level of expressed mRNA in the absence of chemical substance (yeast gene YLR038C): 1.0
- The level of expressed mRNA in the presence of chemical substance/The level of expressed mRNA in the absence of chemical substance (yeast gene YLR259C): 1.8
- The level of expressed mRNA in the presence of chemical substance/The level of expressed mRNA in the absence of chemical substance (yeast gene YLR295C): 1.1
- The level of expressed mRNA in the presence of chemical substance/The level of expressed mRNA in the absence of chemical substance (yeast gene YLR304C): 0.6
- The level of expressed mRNA in the presence of chemical substance/The level of expressed mRNA in the absence of chemical substance (yeast gene YLR348C): 0.9
- The level of expressed mRNA in the presence of chemical substance/The level of expressed mRNA in the absence of chemical substance (yeast gene YML054C): 1.2
- The level of expressed mRNA in the presence of chemical substance/The level of expressed mRNA in the absence of chemical substance (yeast gene YML120C): 0.8
- The level of expressed mRNA in the presence of chemical substance/The level of expressed mRNA in the absence of chemical substance (yeast gene YML129C): 1.8
- The level of expressed mRNA in the presence of chemical substance/The level of expressed mRNA in the absence of chemical substance (yeast gene YMR023C): 1.9
- The level of expressed mRNA in the presence of chemical substance/The level of expressed mRNA in the absence of chemical substance (yeast gene YMR035W): 2.3
- The level of expressed mRNA in the presence of chemical substance/The level of expressed mRNA in the absence of chemical substance (yeast gene YMR083W): 1.7
- The level of expressed mRNA in the presence of chemical substance/The level of expressed mRNA in the absence of chemical substance (yeast gene YMR089C): 1.2
- The level of expressed mRNA in the presence of chemical substance/The level of expressed mRNA in the absence of chemical substance (yeast gene YMR152W): 0.8
- The level of expressed mRNA in the presence of chemical substance/The level of expressed mRNA in the absence of chemical substance (yeast gene YMR203W): 0.8
- The level of expressed mRNA in the presence of chemical substance/The level of expressed mRNA in the absence of chemical substance (yeast gene YMR267W): 1.2
- The level of expressed mRNA in the presence of chemical substance/The level of expressed mRNA in the absence of chemical substance (yeast gene YNL055C): 1.2
- The level of expressed mRNA in the presence of chemical substance/The level of expressed mRNA in the absence of chemical substance (yeast gene YNL071W): 1.4
- The level of expressed mRNA in the presence of chemical substance/The level of expressed mRNA in the absence of chemical substance (yeast gene YNL073W): 1.1
- The level of expressed mRNA in the presence of chemical substance/The level of expressed mRNA in the absence of chemical substance (yeast gene YNL104C): 0.6
- The level of expressed mRNA in the presence of chemical substance/The level of expressed mRNA in the absence of chemical substance (yeast gene YNL256W): 0.6
- The level of expressed mRNA in the presence of chemical substance/The level of expressed mRNA in the absence of chemical substance (yeast gene YOL096C): 1.7
- The level of expressed mRNA in the presence of chemical substance/The level of expressed mRNA in the absence of chemical substance (yeast gene YOR020C): 1.7
- The level of expressed mRNA in the presence of chemical substance/The level of expressed mRNA in the absence of chemical substance (yeast gene YOR037W): 2.5
- The level of expressed mRNA in the presence of chemical substance/The level of expressed mRNA in the absence of chemical substance (yeast gene YOR100C): 1.6
- The level of expressed mRNA in the presence of chemical substance/The level of expressed mRNA in the absence of chemical substance (yeast gene YOR130C): 1.3
- The level of expressed mRNA in the presence of chemical substance/The level of expressed mRNA in the absence of chemical substance (yeast gene YOR142W): 1.0
- The level of expressed mRNA in the presence of chemical substance/The level of expressed mRNA in the absence of chemical substance (yeast gene YOR150W): 1.2
- The level of expressed mRNA in the presence of chemical substance/The level of expressed mRNA in the absence of chemical substance (yeast gene YOR176W): 0.5
- The level of expressed mRNA in the presence of chemical substance/The level of expressed mRNA in the absence of chemical substance (yeast gene YOR187W): 1.5
- The level of expressed mRNA in the presence of chemical substance/The level of expressed mRNA in the absence of chemical substance (yeast gene YOR316C): 1.4
- The level of expressed mRNA in the presence of chemical substance/The level of expressed mRNA in the absence of chemical substance (yeast gene YPL040C): 0.8
- The level of expressed mRNA in the presence of chemical substance/The level of expressed mRNA in the absence of chemical substance (yeast gene YPL134C): 1.2
- The level of expressed mRNA in the presence of chemical substance/The level of expressed mRNA in the absence of chemical substance (yeast gene YPL135W): 1.2
- The level of expressed mRNA in the presence of chemical substance/The level of expressed mRNA in the absence of chemical substance (yeast gene YPL215W): 0.7
- The level of expressed mRNA in the presence of chemical substance/The level of expressed mRNA in the absence of chemical substance (yeast gene YPL262W): 1.3
- The level of expressed mRNA in the presence of chemical substance/The level of expressed mRNA in the absence of chemical substance (yeast gene YPR024W): 1.4
- The level of expressed mRNA in the presence of chemical substance/The level of expressed mRNA in the absence of chemical substance (yeast gene YPR037C): 1.2
- The level of expressed mRNA in the presence of chemical substance/The level of expressed mRNA in the absence of chemical substance (yeast gene YPR047W): 1.8
- The level of expressed mRNA in the presence of chemical substance/The level of expressed mRNA in the absence of chemical substance (yeast gene YPR067W): 1.5
- The level of expressed mRNA in the presence of chemical substance/The level of expressed mRNA in the absence of chemical substance (yeast gene YPR134W): 1.5
